ChEMBL document CHEMBL1132337, “Chiral resolution and stereospecificity of 6-phenyl-4-phenylethynyl- 1,4-dihydropyridines as selective A(3) adenosine receptor antagonists” (J Med Chem, 1999)

Target: Adenosine receptor A2a (Rattus norvegicus) (UniProt P30543)
Test: Displacement of [3H]CGS-21680 from Adenosine A2A receptor of rat striatal membrane at 10e-4 M

Sequence of Adenosine receptor A2a (Rattus norvegicus) (P30543 whole entry): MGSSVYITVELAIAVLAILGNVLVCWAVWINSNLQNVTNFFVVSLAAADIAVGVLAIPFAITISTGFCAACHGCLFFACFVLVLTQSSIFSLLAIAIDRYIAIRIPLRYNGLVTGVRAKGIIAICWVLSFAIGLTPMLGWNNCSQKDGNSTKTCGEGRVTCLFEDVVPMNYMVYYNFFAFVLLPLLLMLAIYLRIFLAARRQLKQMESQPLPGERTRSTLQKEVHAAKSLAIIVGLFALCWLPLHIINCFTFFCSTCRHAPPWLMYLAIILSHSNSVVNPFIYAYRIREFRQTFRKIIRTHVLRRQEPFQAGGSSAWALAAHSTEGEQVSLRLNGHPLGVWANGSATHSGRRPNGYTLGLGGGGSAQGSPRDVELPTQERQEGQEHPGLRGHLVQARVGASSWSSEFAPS

| SMILES | inhibition |
| --- | --- |
| CCOC(=O)C1=C(c2ccccc2)N=C(C)/C(=C(/O)OC[C@H]2COC(C)(C)O2)[C@@H]1C#Cc1ccccc1 | 10% |
| CCO/C(O)=C1\C(C)=NC(c2ccccc2)=C(C(=O)OCc2ccccc2)C1C#Cc1ccccc1 (stereo unspecified) | 10% |
| CCOC(=O)C1=C(c2ccccc2)N=C(C)/C(=C(/O)OC[C@H](O)CO)[C@H]1C#Cc1ccccc1 | 10% |
| CCOC(=O)C1=C(c2ccccc2)N=C(C)/C(=C(/O)OC[C@H]2COC(C)(C)O2)[C@H]1C#Cc1ccccc1 | 10% |
| CCO/C(O)=C1\C(C)=NC(c2ccccc2)=C(C(=O)OCc2ccccc2)[C@@H]1C#Cc1ccccc1 | 11% |
| CCO/C(O)=C1\C(C)=NC(c2ccccc2)=C(C(=O)OCc2ccccc2)[C@H]1C#Cc1ccccc1 | 14% |
